From US20200333357A1, “NOVEL TFEB PATHWAY AGONISTS FOR METABOLIC DISEASES AND AGEING” (The Board of Regents of the University of Texas System, priority 2017, published 2020)
“Also recorded” adds a separate entry of the source. Where a name gives a salt, the structure may show the parent alone.

How the values were obtained:
[1] = tested on: TFEB; assay: GFP-TFEB nuclear translocation (high-content screen, dose-response, confocal imaging); format: cell-based, human; details: for effect of calcineurin inhibition (FK506, CsA, siPPP3CB) on TFEB activation: 5 μM FK506, 10 μM CsA or siPPP3CB; for effect of Compound C (AMPK inhibitor) and STO-609 (CaMKKβ inhibitor) on induced TFEB nuclear translocation: 10 μM compound C, 25 μM STO-609, 4 hr; for effect of IP3R inhibitor Xestosporin C or siIP3R1 on induced TFEB nuclear translocation: 25 μM Xesto 1 hr pretreatment, time-dependent; for effect of GPN pretreatment (lysosomal Ca2+ depletion) on induced TFEB nuclear translocation: 200 μM GPN, 30 min pretreatment; for hit status in the TFEB screen overlapping with the autophagy (GFP-LC3) screen: compounds added for 4 hr, overlap with top 30 hits of autophagy screen; for effect of RNAi-mediated MCOLN1 depletion on induced TFEB nuclear translocation: siMCOLN1
Procedure: GFP-TFEB HeLa cells were seeded in 384-well plates. Compounds were added for 4 hr the following day. Bafilomycin A1 (250 nM) treated cells were used as positive controls and DMSO-treated cells as negative controls. […] Images were collected using 405 nm and 488 nm laser lines with DAPI and FITC emission filters. Images were analyzed using the GE IN Cell Analyzer Workstation software. Briefly, nuclei were segmented using the Hoechst channel and the cytoplasm was segmented using the GFP channel. For each cell, the mean GFP intensity in each compartment was measured and used to calculate the nuclear to cytoplasmic (N/C) TFEB-GFP ratio. The same method as mentioned above was used to generate the top 30 compounds with highest condensed activity values and robust Z score values.
GFP-TFEB HeLa cells treated with compounds or DMSO were fixed and stained with Hoechst. Images from at least 3 different fields per sample were acquired using a 40× objective on a Zeiss confocal microscope and analyzed with ImageJ. 20-30 cells were evaluated from each image for each sample, and 3 independent experiments were performed to generate the graphed values.

[2] = tested on: HeLa cells; assay: Fura-2 Ca2+ imaging; format: cell-based, human; details: exposure at ~TFEB EC90
Procedure: HeLa cells treated with compounds or DMSO for 4 hr were loaded with Fura-2-AM (3 μM) in cell culture medium for 60 min at 37° C. Cells were washed twice then incubated in fresh medium for 30 min to allow complete de-esterification of intracellular AM esters. Imaging was performed at 37° C. with 5% CO2 on an epifluorescent microscope (Deltavision, Applied Precision) equipped with a digital monochrome Coolsnap HQ2 camera (Roper Scientific, Tucson, Ariz.). Fluorescence images were collected using SoftWoRx v3.4.5 (Universal Imaging, Downingtown, Pa.). Data were recorded at excitation/emission wavelengths of 340/510 nm (Fura-340 filter) and 387/510 nm (Fura-380 filter). The single band pass excitation filter for Fura-340 and Fura-380 is 26 nm and 11 nm, respectively, and the band pass of emission filters for Fura-340 and Fura-380 is 84 nm. Intracellular calibration of Fura-2 was accomplished by manipulating the Ca^2+ levels inside cells using the ionphore ionomycin (20 μM, Sigma-Aldrich) and by incubating cells in buffers with various Ca^2+ concentrations (calcium calibration buffer kit—Invitrogen). Intracellular fluorescence ratios were determined using ImageJ software. Images were background-corrected by subtracting the mean pixel values of a cell-free region near the region of interest. Fluorescent intensity ratio R=F340/F380, and Ca^2+ concentration can be calculated from Equation 3, where Kd can be obtained from intracellular calibration:
[Ca^2+]Kd×F380,min/F380,max×(R−Rmin)/(Rmax−R) (3)

[3] = tested on: NFAT; assay: Endogenous NFAT nuclear translocation; format: cell-based; details: high or intermediate doses
Procedure: (§1) SFIGS. […] (SFIG. 4B) Representative images of GFP-TFEB HeLa cells treated with 3.3 μM AD or in combination with 5 μM FK506, 10 μM CsA or both. […] Scale bar, 20 μm. […] Scale bar, 20 μm. […] Scale bar, 20 μm. (SFIGS. 4F-G) Immunoblots of wide-type HeLa cells treated with various doses (starting from 3.3 μM with a 3-fold dilution, and right-most lane is DMSO) of AD and IKA.

[4] = tested on: AMPK; assay: AMPK and ACC phosphorylation immunoblots; format: cell-based, human; details: HeLa cells, dose-dependent
Procedure: as §1

## CC[C@H]1[C@@H]2C=C[C@@H]3[C@H]4C/C=C\C(=O)NCCC[C@@H]5NC(=O)/C(=C(O)/C=C/[C@@H]4C[C@@H]3[C@H]2C[C@H]1C)C5=O [IKA, ikarugamycin]
[1]
  reversal of effect on TFEB by cell-permeable pyruvate: reversed
  effect of calcineurin inhibition (FK506, CsA, siPPP3CB) on TFEB activation: calcineurin independent
  effect of Compound C (AMPK inhibitor) and STO-609 (CaMKKβ inhibitor) on induced TFEB nuclear translocation: inhibited
  effect of IP3R inhibitor Xestosporin C or siIP3R1 on induced TFEB nuclear translocation: attenuated
  effect of GPN pretreatment (lysosomal Ca2+ depletion) on induced TFEB nuclear translocation: almost no effect
[1]; 300 nM TG, 30 min
  effect of thapsigargin (ER Ca2+ depletion) on induced TFEB nuclear translocation: selectively decreased
[2]
  cytosolic calcium (Fura-2): induce accumulation of cytosolic calcium
[3]
  nuclear translocation of NFAT: not
[4]
  activating phosphorylation of AMPK and its substrate ACC: induced activating phosphorylation

## C[C@H]1O[C@@H](O[C@H]2[C@@H](O)C[C@H](O[C@H]3[C@@H](O)C[C@H](O[C@H]4CC[C@@]5(C)[C@H](CC[C@@H]6[C@@H]5C[C@@H](O)[C@]5(C)[C@@H](C7=CC(=O)OC7)CC[C@]65O)C4)O[C@@H]3C)O[C@@H]2C)C[C@H](O)[C@@H]1O [DG, digoxin, reference compound]
[1]
  reversal of effect on TFEB by cell-permeable pyruvate: not
  effect of Compound C (AMPK inhibitor) and STO-609 (CaMKKβ inhibitor) on induced TFEB nuclear translocation: not
  effect of IP3R inhibitor Xestosporin C or siIP3R1 on induced TFEB nuclear translocation: attenuated
  effect of GPN pretreatment (lysosomal Ca2+ depletion) on induced TFEB nuclear translocation: sufficient to disrupt TFEB nuclear translocation
  hit status in the TFEB screen overlapping with the autophagy (GFP-LC3) screen: top 18 hits; also recorded: top scoring hits
  effect of RNAi-mediated MCOLN1 depletion on induced TFEB nuclear translocation: suppressed
[1]; compound at EC50
  effect of calcineurin perturbation on TFEB activation: inhibited to some extent
[1]; compound at EC90
  effect of calcineurin perturbation on TFEB activation: resistant
[2]
  cytosolic calcium (Fura-2): induce accumulation of cytosolic calcium
[3]
  nuclear translocation of NFAT: not
[4]
  activating phosphorylation of AMPK and its substrate ACC: not

## CCCCC(CC)CNC(=N)NC(=N)NCCCCCCNC(=N)NC(=N)NCC(CC)CCCC (stereo not drawn) [AD, alexidine dihydrochloride]
[1]
  reversal of effect on TFEB by cell-permeable pyruvate: reversed
  effect of calcineurin inhibition (FK506, CsA, siPPP3CB) on TFEB activation: block TFEB activation
  effect of Compound C (AMPK inhibitor) and STO-609 (CaMKKβ inhibitor) on induced TFEB nuclear translocation: inhibited
  effect of IP3R inhibitor Xestosporin C or siIP3R1 on induced TFEB nuclear translocation: attenuated
  effect of GPN pretreatment (lysosomal Ca2+ depletion) on induced TFEB nuclear translocation: sufficient to disrupt TFEB nuclear translocation
  effect of RNAi-mediated MCOLN1 depletion on induced TFEB nuclear translocation: suppressed
[1]; dihydrochloride
  hit status in the TFEB screen overlapping with the autophagy (GFP-LC3) screen: top 18 hits; also recorded: top scoring hits
[2]
  cytosolic calcium (Fura-2): induce accumulation of cytosolic calcium
[3]
  nuclear translocation of NFAT: induced dose-dependent nuclear translocation
[4]
  activating phosphorylation of AMPK and its substrate ACC: induced activating phosphorylation
